According to patent US20210371422A1, “MORPHINAN DERIVATIVE” (priority 2016, published 2021):
Counter-ions that a name gives are not always drawn. Like-named read-outs stand apart in the source and are kept apart here.

Legend:
human opioid κ receptor = target: T1, human opioid κ receptor (Homo sapiens, UniProt P41145); assay: Opioid receptor function test (Lance Ultra cAMP Kit), κ receptor; assay type: cell-based
T1 construct: host or cells: CHO cells
Method: (§1) Opioid Receptor Function Test
(§2) The functional activities of the compounds provided by the present invention on the μ, δ, and κ opioid receptors were investigated.
(§3) The test was performed by using Lance Ultra cAMP Kit (PerkinElmer) according to a method predetermined for the kit. In the evaluation of the agonistic activity, CHO cells expressing each of the human opioid receptors (δ, μ, and κ, accession numbers and catalog numbers are mentioned below) and 10 μM of each test compound were reacted for 30 minutes in an assay buffer (1×HESS, […], pH 7.4, […] (isobutylmethylxanthine), 7.5% BSA) in the presence of forskolin. Subsequently, the cAMP detection reagent included in the kit was added, and 1 hour afterward, time-resolved fluorescence measurement was performed by using the EnVision plate reader (PerkinElmer). The test compounds and the control drugs (δ: SNC80, μ: DAMGO, K: U-69593) were evaluated in a concentration range of 10^-12 to 10^-5 M, a dose-response curve of each test compound was obtained from the fluorescence values at 665 nm, and EC50 value and the Emax value were calculated. The Emax value was calculated as a ratio of the maximum reaction of the test compound to the maximum reaction of each control drug, which is taken as 100%.

human opioid δ receptor = target: T2, human opioid δ receptor (Homo sapiens, UniProt P41143); assay: Opioid receptor function test (Lance Ultra cAMP Kit), δ receptor; assay type: cell-based; settings: for EC50: CHO cells expressing human δ receptor, cAMP, in the presence of forskolin, read-out: δ receptor EC° C.; for Emax: ratio to maximum reaction of control drug SNC80 (100%)
T2 construct: host or cells: CHO cells
T2 sequence (P41143 whole entry): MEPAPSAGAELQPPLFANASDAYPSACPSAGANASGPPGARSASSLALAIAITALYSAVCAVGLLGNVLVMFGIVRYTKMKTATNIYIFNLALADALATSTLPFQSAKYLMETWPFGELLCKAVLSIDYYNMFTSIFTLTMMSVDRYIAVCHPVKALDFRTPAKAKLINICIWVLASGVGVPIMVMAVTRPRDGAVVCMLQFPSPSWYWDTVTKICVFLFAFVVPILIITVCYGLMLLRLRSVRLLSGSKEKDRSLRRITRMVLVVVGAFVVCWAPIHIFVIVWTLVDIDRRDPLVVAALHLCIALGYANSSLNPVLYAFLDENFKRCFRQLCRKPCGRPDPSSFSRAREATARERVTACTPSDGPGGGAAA
Method: as §1, §2, §3

human opioid μ receptor = target: T3, human opioid μ receptor (Homo sapiens, UniProt P35372); assay: Opioid receptor function test (Lance Ultra cAMP Kit), μ receptor; assay type: cell-based; settings: for EC50: CHO cells expressing human μ receptor, cAMP, N.C. = maximum reaction not reached at highest concentration (10 μM), not calculated, read-out: μ receptor EC° C.
T3 construct: host or cells: CHO cells
T3 sequence (P35372 whole entry): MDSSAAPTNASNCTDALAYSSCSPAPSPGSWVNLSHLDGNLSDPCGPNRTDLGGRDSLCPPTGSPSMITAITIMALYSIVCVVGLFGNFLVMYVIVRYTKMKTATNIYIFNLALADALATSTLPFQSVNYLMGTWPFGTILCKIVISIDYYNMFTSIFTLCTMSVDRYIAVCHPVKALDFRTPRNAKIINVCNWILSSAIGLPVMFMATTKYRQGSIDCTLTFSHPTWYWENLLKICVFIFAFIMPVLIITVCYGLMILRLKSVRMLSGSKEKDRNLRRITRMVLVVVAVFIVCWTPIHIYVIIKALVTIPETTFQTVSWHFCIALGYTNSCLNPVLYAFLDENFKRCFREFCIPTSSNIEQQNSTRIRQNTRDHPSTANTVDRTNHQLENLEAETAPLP
Method: as §1, §2, §3

hERG potassium channel = target: T4, hERG potassium channel (Homo sapiens, UniProt Q12809); assay: hERG potassium channel inhibition test (automatic patch clamp); assay type: cell-based; settings: for hERG channel inhibitory effect: hERG-expressing CHO cells
T4 construct: host or cells: CHO cells
T4 sequence (Q12809 whole entry): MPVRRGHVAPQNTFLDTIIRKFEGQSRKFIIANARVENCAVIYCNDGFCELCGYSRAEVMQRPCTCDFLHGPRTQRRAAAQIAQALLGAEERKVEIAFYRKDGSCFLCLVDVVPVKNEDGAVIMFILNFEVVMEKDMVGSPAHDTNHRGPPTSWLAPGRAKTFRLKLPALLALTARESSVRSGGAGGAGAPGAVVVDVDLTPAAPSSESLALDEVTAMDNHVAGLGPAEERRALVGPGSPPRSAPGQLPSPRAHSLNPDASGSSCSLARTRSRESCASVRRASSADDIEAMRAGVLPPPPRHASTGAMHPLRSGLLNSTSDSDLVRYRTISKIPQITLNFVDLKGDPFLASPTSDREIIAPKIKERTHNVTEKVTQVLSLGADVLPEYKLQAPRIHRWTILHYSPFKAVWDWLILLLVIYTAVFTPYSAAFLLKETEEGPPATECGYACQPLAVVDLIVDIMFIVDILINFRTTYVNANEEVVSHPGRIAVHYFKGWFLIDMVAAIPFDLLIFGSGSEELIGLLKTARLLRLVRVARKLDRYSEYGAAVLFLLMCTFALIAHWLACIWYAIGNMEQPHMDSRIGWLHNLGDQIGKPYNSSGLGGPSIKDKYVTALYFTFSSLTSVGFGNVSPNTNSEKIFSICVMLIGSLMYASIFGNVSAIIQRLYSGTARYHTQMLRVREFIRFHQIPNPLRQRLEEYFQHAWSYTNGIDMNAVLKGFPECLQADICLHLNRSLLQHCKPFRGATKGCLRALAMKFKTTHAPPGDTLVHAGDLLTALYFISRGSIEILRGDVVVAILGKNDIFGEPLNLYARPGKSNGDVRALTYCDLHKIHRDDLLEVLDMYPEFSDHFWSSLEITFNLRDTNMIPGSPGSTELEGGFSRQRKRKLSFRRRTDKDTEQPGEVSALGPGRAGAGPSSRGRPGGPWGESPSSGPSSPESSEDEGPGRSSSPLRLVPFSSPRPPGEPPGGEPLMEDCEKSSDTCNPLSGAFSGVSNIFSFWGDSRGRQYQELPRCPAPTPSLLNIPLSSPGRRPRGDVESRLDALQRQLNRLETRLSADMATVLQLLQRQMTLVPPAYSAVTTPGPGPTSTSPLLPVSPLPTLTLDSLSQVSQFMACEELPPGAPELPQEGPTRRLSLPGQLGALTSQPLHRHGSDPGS
Method: Human Ether-a-Go-Go Related Gene (hERG) Potassium Channel Inhibition Test
The test was performed with Port-a-Patch automatic patch clump apparatus (Manion Technologies) using hERG channel-stably expressing CHO cells (purchased from Channelopathy Foundation). The membrane potential of the cells was maintained at −80 mV, then there were applied a depolarization pulse at +20 mV for 1.5 seconds, and a following test pulse at −50 mV for 1.5 seconds at a frequency of 1 time per 10 seconds, and the hERG current was confirmed as a tail current induced by the test pulse. The test compound was dissolved in an extracellular fluid (137 mM NaCl, 4 mM KCl, 1.8 mM CaCl2, 1 mM MgCl2, 10 mM D(+)-glucose, 10 mM HEPES, pH 7.4), and the solution was […] at room temperature for 5 minutes. The inhibition ratio was obtained from the ratio of the tail current value observed after the compound was applied based on the tail current value observed before the compound was applied, which was taken as 100%.

Wistar male rats = assay: Rat elevated plus maze test; assay type: in vivo
Method: Rat Elevated Plus Maze Test
An anxiolytic effect of a compound provided by the present invention was examined using the rat elevated plus maze test.
For the test, 7 to 9 weeks old Wistar male rats were used. […] Each test substance was dissolved in a 4.5% aqueous solution of cyclodextrin, and orally administered 2 hours before the start of the test. The test data were automatically analyzed by using video image action analysis software (Smart3.0, PanLab S.L., PanLab), and wall-less running route staying time ratio (%) was calculated.

[1] = Intracerebral migration test (concentration in cerebrospinal fluid and plasma); assay type: in vivo; settings: male, Wistar, sc, rat, 3 mg/kg s.c., 30 minutes after administration
Method: Intracerebral Migration Test
A Wistar male 5-9 week old rat was used for the test. A test substance was dissolved in saline or a 4.5% cyclodextrin aqueous solution, and 1 mol/L hydrochloric acid (0.5 to 2.0 v/v %) was added thereto as necessary. The test substance was subcutaneously administered to the rat at a dose of 3 or 10 mg/kg. Thirty minutes later, cerebrospinal fluid was collected from the cisterna magna under isoflurane anesthesia. Subsequently, laparotomy was performed, and blood was collected from the vena cava. Thereafter, the blood was centrifuged at 1500×g at 4° C. for 15 minutes to obtain plasma. The animal was euthanized promptly by aortic cutting. The concentrations of the test substance in cerebrospinal fluid and plasma were measured using LC-MS/MS.

C57BL/6N male mice = assay: Mouse elevated plus maze test; assay type: in vivo; settings: 0.3 mg/kg subcutaneous administration, 30 minutes before test (FIG. 1)
Method: Mouse Elevated Plus Maze Test
For the test, 5 to 6 weeks old C57BL/6N male mice were used. On a plus maze apparatus consisting of a wall-less running route (open arm, width 6 cm, length 30 cm) and a running route with a wall (closed arm, width 6 cm, length 30 cm, height of wall 15 cm), and having a height of 40 cm, a mouse was put so as to be directed to the running route with a wall, and allowed to spontaneously enter into the plus maze. Each test substance was dissolved in saline or 0.005 N HCl in saline, and subcutaneously administered on the back 30 minutes before the start of the test. At the time of the start of the test, video recording with a video camera was started, the time at which the mouse entered into the plus maze is considered to be the start of the test, and exploratory behavior was recorded for 5 minutes. On the basis of the video image, staying time in the running routes were determined, and wall-less running route staying time ratio (%) was calculated.

[2] = read-out: κ receptor Emax (*reaction rate at the highest concentration, reference value)
[3] = read-out: μ receptor Emax (*reaction rate at the highest concentration, reference value)
[4] = ratio to maximum reaction of control drug DAMGO (100%), read-out: μ receptor Emax

T1 sequence (P41145 whole entry): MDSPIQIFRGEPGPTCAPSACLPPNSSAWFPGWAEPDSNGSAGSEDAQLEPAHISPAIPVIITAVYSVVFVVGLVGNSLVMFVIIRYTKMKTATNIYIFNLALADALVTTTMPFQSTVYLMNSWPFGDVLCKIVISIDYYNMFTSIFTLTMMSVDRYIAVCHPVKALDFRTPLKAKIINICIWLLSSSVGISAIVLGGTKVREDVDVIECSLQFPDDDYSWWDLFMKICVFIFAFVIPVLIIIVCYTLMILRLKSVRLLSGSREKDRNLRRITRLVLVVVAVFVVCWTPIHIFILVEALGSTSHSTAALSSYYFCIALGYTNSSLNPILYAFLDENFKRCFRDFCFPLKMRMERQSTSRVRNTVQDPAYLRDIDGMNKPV

CN1CCC[C@@H]1C(=O)N1C[C@H]2C[C@@]34CC[C@@H]1[C@@H]2[C@@]31CCN(CC2CC2)[C@@H]4Cc2ccc(O)cc21 [Example 9, (1S,3aR,5aS,6R,11bR,11cS)-14-(cyclopropylmethyl)-10-hydroxy-3-(methyl-D-prolyl)-2,3,3a,4,5,6,7,11c-octahydro-1H-6,11b-(epiminoethano)-1,5a-methanonaphtho[1,2-e]indol]
Emax (human opioid κ receptor; [2]): 3.7%
EC50 (human opioid δ receptor): < 3 nM
Emax (human opioid δ receptor): 64%
Emax (human opioid μ receptor; [3]): -0.6%

O=C([C@H]1CCCN1)N1C[C@H]2C[C@@]34CC[C@@H]1[C@@H]2[C@@]31CCN(CC2CC2)[C@@H]4Cc2ccc(O)cc21 [Example 2, (1S,3aR,5aS,6R,11bR,11cS)-3-(D-prolyl)-14-(cyclopropylmethyl)-10-hydroxy-2,3,3a,4,5,6,7,11c-octahydro-1H-6,11b-(epiminoethano)-1,5a-methanonaphtho[1,2-e]indole dihydrochloride]
Emax (human opioid κ receptor; [2]): 3.8%
hERG channel inhibitory effect (in words) (hERG potassium channel): only a weak inhibitory effect
hERG channel inhibitory effect (hERG potassium channel; concentration 10 μM): <50%
EC50 (human opioid δ receptor): < 3 nM
Emax (human opioid δ receptor): 95%
Emax (human opioid μ receptor; [3]): 3.8%

O=C1CC[C@H](C(=O)N2C[C@H]3C[C@@]45CC[C@@H]2[C@@H]3[C@@]42CCN(CC3CC3)[C@@H]5Cc3ccc(O)cc32)O1 [Example 13, (R)-5-((1S,3aR,5aS,6R,11bR,11cS)-14-(cyclopropylmethyl)-10-hydroxy-2,3,3a,4,5,6,7,11c-octahydro-1H-6,11b-(epiminoethano)-1,5a-methanonaphtho[1,2-e]indole-3-carbonyl) dihydrofuran-2(3H)-one]
EC50 (human opioid κ receptor; CHO cells expressing human κ receptor, cAMP, N.C. = maximum reaction not reached at highest concentration (10 μM), not calculated, read-out: κ receptor EC° C.): < 1 nM
Emax (human opioid κ receptor; ratio to maximum reaction of control drug U-69593 (100%), read-out: κ receptor Emax): 13%
hERG channel inhibitory effect (hERG potassium channel; concentration 1 μM): <50%
EC50 (human opioid δ receptor): < 3 nM
Emax (human opioid δ receptor): 70%
EC50 (human opioid μ receptor): > 1 nM
Emax (human opioid μ receptor; [4]): 35%

O=C([C@H]1CCCCN1)N1C[C@H]2C[C@@]34CC[C@@H]1[C@@H]2[C@@]31CCN(CC2CC2)[C@@H]4Cc2ccc(O)cc21 [Example 4, ((1S,3aR,5aS,6R,11bR,11cS)-14-(cyclopropylmethyl)-10-hydroxy-1,2,3a,4,5,6,7,11c-octahydro-3H-6,11b-(epiminoethano)-1,5a-methanonaphtho[1,2-e]indol-3-yl) ((R)-piperidin-2-yl) methanone dihydrochloride]
Emax (human opioid κ receptor; [2]): 5%
hERG channel inhibitory effect (in words) (hERG potassium channel): only a weak inhibitory effect
hERG channel inhibitory effect (hERG potassium channel; concentration 10 μM): <50%
EC50 (human opioid δ receptor): < 3 nM
Emax (human opioid δ receptor): 82%
Emax (human opioid μ receptor; [3]): 0.87%

O=C([C@H]1CCCO1)N1C[C@H]2CC34CCC1C2C31CCN(CC2CC2)C4Cc2ccc(O)cc21 (stereo partly drawn) [Example 12, ((1S,3aR,5aS,6R,11bR,11cS)-14-(cyclopropylmethyl)-10-hydroxy-1,2,3a,4,5,6,7,11c-octahydro-3H-6,11b-(epiinoetano)-1,5a-methanonaphtho[1,2-e]indol-3-yl) ((R)-tetrahydrofuran-2-yl) methanone]
minimum effective medicinal dose (Wistar male rats; rat elevated plus maze test, p. o.): 0.3 mg/kg
wall-less traveling path residence time rate (Wistar male rats; rat, 0.3 mg/kg oral administration, 2 hours before test (FIG. 2)): significantly increases
Emax (human opioid κ receptor; [2]): 8.7%
hERG channel inhibitory effect (hERG potassium channel; concentration 1 μM): <50%
concentration at 30 min ([1]; cerebrospinal fluid, read-out: Concentration in cerebrospinal fluid): 42 nM
concentration at 30 min ([1]; plasma, read-out: Concentration in plasma): 580 nM
wall-less traveling path residence time rate (C57BL/6N male mice): significantly increases
EC50 (human opioid δ receptor): < 1 nM
Emax (human opioid δ receptor): 85%
EC50 (human opioid μ receptor): > 1 nM
Emax (human opioid μ receptor; [4]): 12%

O=C([C@H]1CCCNC1)N1C[C@H]2C[C@@]34CC[C@@H]1[C@@H]2[C@@]31CCN(CC2CC2)[C@@H]4Cc2ccc(O)cc21 [Example 6, ((1S,3aR,5aS,6R,11bR,11cS)-14-(cyclopropylmethyl)-10-hydroxy-1,2,3a,4,5,6,7,11c-octahydro-3H-6,11b-(epiminoethano)-1,5a-methanonaphtho[1,2-e]indol-3-yl) ((S)-piperidin-3-yl) methanone dihydrochloride]
EC50 (human opioid κ receptor): < 1 nM
Emax (human opioid κ receptor; read-out: κ receptor Emax): 11%
EC50 (human opioid δ receptor): < 3 nM
Emax (human opioid δ receptor): 74%
Emax (human opioid μ receptor; [3]): 5.5%

O=C([C@H]1CCCO1)N1C[C@H]2CC34CCC1C2C31CCNC4Cc2ccc(O)cc21 (stereo partly drawn) [Example 14, ((1S,3aR,5aS,6R,11bR,11cS)-10-hydroxy-1,2,3a,4,5,6,7,11c-octahydro-3H-6,11b-(epiinoetano)-1,5a-methanonaphtho[1,2-e]indol-3-yl) ((R)-tetrahydrofuran-2-yl) methanone]
hERG channel inhibitory effect (in words) (hERG potassium channel): only a weak inhibitory effect
hERG channel inhibitory effect (hERG potassium channel; concentration 10 μM): <50%
